Results published in US4563452A, “Derivatives of oxazinobenzothiazine-6,6-dioxide” (Provesan S.A., priority 1982, dated 1986).
pIC50: −log10 of the molar value. Where two headings read alike, the source gives them in different places.

Experiments:
[1] = biological target: T1, prostaglandin-synthetase (1.14.99.1) (Bos taurus, UniProt O62664); assay: Inhibition of the prostaglandin-synthetase of seminal vesicle of cattle, method of Yoshimoto; format: biochemical; settings: in vitro; 37° C., 5 minutes contact of enzyme with product, then 10 minutes incubation with arachidonic acid; pH 8.0
T1 construct: Prostaglandin-Synthetase of Seminal Vesicle of Cattle; from tissue; host or cells: seminal vesicle of cattle
T1 sequence (O62664 25-600): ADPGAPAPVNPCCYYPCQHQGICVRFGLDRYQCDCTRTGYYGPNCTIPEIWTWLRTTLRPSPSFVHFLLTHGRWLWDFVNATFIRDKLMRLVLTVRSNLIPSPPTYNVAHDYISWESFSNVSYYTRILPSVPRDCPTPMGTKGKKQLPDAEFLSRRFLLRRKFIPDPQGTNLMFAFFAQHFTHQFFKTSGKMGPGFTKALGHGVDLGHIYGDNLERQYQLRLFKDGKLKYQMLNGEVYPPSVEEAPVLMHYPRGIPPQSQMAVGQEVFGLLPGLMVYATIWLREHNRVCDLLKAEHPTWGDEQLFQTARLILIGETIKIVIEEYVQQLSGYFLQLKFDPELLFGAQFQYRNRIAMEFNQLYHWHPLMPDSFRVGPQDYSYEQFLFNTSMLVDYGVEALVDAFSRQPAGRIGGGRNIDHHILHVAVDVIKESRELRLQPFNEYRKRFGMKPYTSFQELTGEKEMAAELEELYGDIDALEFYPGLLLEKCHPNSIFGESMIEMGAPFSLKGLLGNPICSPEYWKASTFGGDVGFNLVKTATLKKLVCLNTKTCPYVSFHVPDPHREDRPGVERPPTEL
Description: Inhibition of the Prostaglandin-Synthetase of Seminal Vesicle of Cattle
The activity of the prostaglandin-synthetase (1.14.99.1) is determined by measuring the increases in absorbance at 278 nm due to the formation of prostaglandin B from prostaglandin E in an alkaline medium.
The incubation temperature was 37±0.1° C. in every case.
0.5 ml of substrate solution (0.6 mg of arachidonic acid in 10 ml of buffer) and 0.5 ml of buffer are added to 1.5 ml of cofactor solution (0.55 mg of hydroquinone+0.5 mg of hemoglobin+7.7 mg of glutathione in 12 ml of 0.2M Tris-HCl buffer of pH 8.0), containing 10 mg of enzyme, and the mixture is incubated at 37° C. for 10 minutes. The enzymatic reaction is stopped by the addition of 1.5 ml of 0.2M citric acid and the pGE is extracted with 2×5 ml of ethyl acetate. The organic phase is evaporated under a stream of nitrogen at 40° C. and the residue is redissolved in 2 ml of methanol and 0.5 ml of 3M potassium hydroxide. Finally, the absorptions at 278 nm are measured with respect to a blank to which 0.5 ml of buffer are added instead of 0.5 ml of substrate solution.
The enzymatic activity is expressed as an increase in the optical density for 10 minutes of reaction.
The subsequent stages are identical to those which have already been described. […]

[2] = system: pain induced by acetyl choline; assay: Analgesic activity with respect to the pain induced by acetyl choline (contortions), method of Collier; format: in vivo, Male mice of the Swiss strain; settings: Mus musculus, po, dose which reduces the number of contortions to half the initial value
Description: Analgesic activity with respect to the pain induced by acetyl choline
Method developed by Collier (Collier, H. O. W. Dinneen, L. C. Johnson, C. A. and Schneider, C.--Br. J. Pharmac. Chemother., 32, 295-310 (1968)).
Male mice of the Swiss strain are used, weighing from 20 to 25 g. The mice are put into individual cages. A volume of 0.2 ml/20 g of a solution of acetyl choline bromide of 0.32 mg/ml is administered intraperitoneally to each animal. Thus, the injected dose of acetyl choline bromide is 3.2 mg/kg. The number of contortions or stretches performed by each mouse is counted over a period of 5 minutes. After 5 minutes, the products are administered using 5% gum arabic as a vehicle. After 40 and 120 minutes of administration of the products, another injection of acetyl choline is given and the number of contortions which are observed over a period of 5 minutes is counted.
The percentage of inhibition of the number of contortions after 40 and 120 minutes is calculated for each animal using the following formulae: [formula] wherein: NO =number of contortions before the product is administered
N40 =number of contortions 40 minutes after administration of the product
N120 =number of contortions 120 minutes after administration of the product.
The percentage of inhibition of the contortions is directly proportional to the logarithm of the administered dose. The dose which reduces the number of contortions to half the initial value (ED-50) is obtained from the curve of dose logarithm-% effect.

[3] = system: oedema produced by carrageenin; assay: Anti-inflammatory activity (inhibition of oedema produced by carrageenin), method of Winter; format: in vivo, Male rats of the Sprague-Dawley HC/CEY strain; settings: Rattus norvegicus, oral, 1 hour before carrageenin, ED-50 = dose which reduces the oedema volume by 25%
Description: ANTI-INFLAMMATORY ACTIVITY (INHIBITION OF OEDEMA PRODUCED BY CARRAGEENIN)
Method developed by Winter (Winter, C. A., Risley, E. A. and Nuss, G. W. Proc. Soc. Exp. Biol. Med., […] (1962)).
Male rats of the Sprague-Dawley HC/CEY strain are used, weighing from 90 to 110 g. The products are administered suspended in 5% gum arabic, by an oral method using an oesophageal probe, 1 hour before a subplantar injection in the right foot of each animal of 0.1 ml of 1% carrageenin suspension in physiological serum (NaCl 0.9%). The control animals are given 5% gum arabic, the total volume which is used in every case amounting to 10 ml/kg.
The volume of each foot is measured immediately before the carrageenin injection (time 0), then three and five hours after this injection using a mercury plethysmograph.
The inflammation index is calculated for each animal after 3 hours (I3) and after 5 hours (I5) after the carrageenin injection by means of the following formulae: [formula] wherein: VO =volume of the foot at time zero (immediately before the administration of carrageenin)
V3 =volume of the foot 3 hours after the injection of carrageenin
V5 =volume of the foot 5 hours after the injection of carrageenin.
The average inflammation index is calculated for the control batch after 3 hours (It3) and after 5 hours (It5).
The percentage of inhibition of the oedema (anti-inflammatory activity) is calculated for each animal by means of the formulae: [formula] wherein: A3 =anti-inflammatory activity in percentage of inhibition of the oedema after 3 hours
A5 =anti-inflammatory activity in percentage of inhibition of the oedema after 5 hours.
The anti-inflammatory activity is proportional to the logarithm of the administered dose. The dose which reduces the volume of the odema by 25% is obtained from the curve of dose logarithm-% effect. This dose is adopted as ED-50, since the maximum effect which is achieved is the reduction of the oedema by 50%.

[4] = 40 min, 40 minutes after administration, read-out: ED-50 40 min.
[5] = 2 h, 120 minutes after administration, read-out: ED-50 120 min.
[6] = 3 hours after carrageenin injection, read-out: ED-50 3 hours
[7] = 5 hours after carrageenin injection, read-out: ED-50 5 hours

pIC50 [1] | Compound | ED50 [2, 4] | ED50 [2, 5] | ED50 [3, 6] | ED50 [3, 7]
3.52 | CCCCC1C(=O)N(c2ccccc2)N(c2ccccc2)C1=O [Phenylbutazone, reference compound] | 40 mg/kg | 35 mg/kg | 17 mg/kg | 17 mg/kg
– | CN1c2c(oc(=O)n(-c3ncccn3)c2=O)-c2ccccc2S1(=O)=O [Example 5, 5-methyl-3-(2-pyrimidinyl)-2H,5H-1,3-oxazino[5,6-c][1,2]benzothiazine-2,4-(3H)dione-6,6-dioxide] | > 160 mg/kg | > 160 mg/kg | > 40 mg/kg | > 40 mg/kg
– | Cc1cccc(-n2c(=O)oc3c(c2=O)N(C)S(=O)(=O)c2ccccc2-3)n1 [Example 7, 5-methyl-3-[2-(6-methylpyridyl)]-2H,5H-1,3-oxazino[5,6-c][1,2]benzothiazine-2,4-(3H)dione-6,6-dioxide] | 7.5 mg/kg | 10 mg/kg | 20 mg/kg | 25 mg/kg
– | Cc1ccnc(-n2c(=O)oc3c(c2=O)N(C)S(=O)(=O)c2ccccc2-3)c1 [Example 6, 5-methyl-3-[2-(4-methylpyridyl)]-2H,5H-1,3-oxazino[5,6-c][1,2]benzothiazine-2,4-(3H)dione-6,6-dioxide] | > 160 mg/kg | > 160 mg/kg | > 40 mg/kg | > 40 mg/kg
– | CN1c2c(oc(=S)n(-c3ccccn3)c2=O)-c2ccccc2S1(=O)=O [Example 3, 5-methyl-3-(2-pyridyl)-2H,5H-1,3-oxazino[5,6-c][1,2]benzothiazine-2(3H)thione-4-one-6,6-dioxide] | 25 mg/kg | 25 mg/kg | > 40 mg/kg | > 40 mg/kg
4.00 | CN1c2c(oc(=O)n(-c3ccccn3)c2=O)-c2ccccc2S1(=O)=O [Example 2, 5-methyl-3-(2-pyridyl)-2H,5H-1,3-oxazino[5,6-c][1,2]benzothiazine-2,4-(3H)dione-6,6-dioxide] | 1.8 mg/kg | 1.1 mg/kg | 2.3 mg/kg | 2.6 mg/kg
– | CCN1c2c(oc(=O)n(-c3ccccn3)c2=O)-c2ccccc2S1(=O)=O [Example 1, 5-ethyl-3-(2-pyridyl)-2H,5H-1,3-oxazino[5,6-c][1,2]benzothiazine-2,4-(3H)dione-6,6-dioxide] | > 160 mg/kg | > 160 mg/kg | > 40 mg/kg | > 40 mg/kg
– | Cc1cc(-n2c(=O)oc3c(c2=O)N(C)S(=O)(=O)c2ccccc2-3)no1 [Example 4, 5-methyl-3-[3-(5-methylisoxazolyl)]-2H,5H-1,3-oxazino[5,6-c][1,2]benzothiazine-2,4-(3H)dione-6,6-dioxide] | 154 mg/kg | 154 mg/kg | 38 mg/kg | 39 mg/kg
